Measurements published in patent publication US20090082437A1, “Use of Oxaliplatin for Enhancing Radiosensitivity in Radiotherapy of Cervical Cancer” (MACKAY MEMORIAL HOSPITAL, priority 2007, published 2009).

What was measured:
[1] = tested on: HPV 18 positive adenocarcinoma cell (HeLa); conditions: cited from earlier work
gamma-H2AX in HeLa cells = test: Immunofluorescent staining of gamma-H2AX; type: cell-based, human; conditions: oxaliplatin 5 μM 2 h plus 2 Gy, 15 min after radiation
Method: Immunofluorescent staining was used to determine radiation-induced expression of gamma-H2AX which is an indicator of DNA double-strand break. For immunofluorescent staining of gamma-H2AX, HeLa cervical cancer cells that were untreated (control), treated with oxaliplatin 5 μM for 2 h, irradiation of 2 Gy, and oxaliplatin plus irradiation, cells were harvested 15 min after radiation, stained with Rhodamine-conjugated gamma-H2AX antibody (red) and counterstained with DAPI (blue), respectively.

[2] = tested on: pATM, pChk1, pChk2, Rad51 in HeLa cells; test: Western blot of DNA damage repair molecules; type: cell-based, human; conditions: oxaliplatin 5 μM 2 h plus radiation 2 Gy
Method: For western blot analysis, HeLa cells were cultured with various treatments: untreated (control), oxaliplatin 5 μM for 2 h (oxaliplatin), radiation 2 Gy (RT alone) and oxaliplatin plus radiation (oxaliplatin+RT) for further 1 h and 6 h. Then, the cellular proteins were extracted, quantified and subjected to gel electrophoresis using 10% (wt/vol) SDS-polyacrylamide gels. Protein samples were then blotted onto polyvinylidene difluoride (PVDF) membranes (Bio-Rad, Hercules, Calif.). The membranes were probed with diluted primary antibodies and detected using horseradish peroxidase-conjugated anti-mouse IgG followed by the use of enhanced chemiluminescence kits (Amersham Pharmacia Biotech). Anti-actin antibody was used as an internal control.

SiHa (HPV 16+) cells = test: MTT cell viability assay; type: cell-based, human; conditions: 24 hours' exposure, MTT after 2 days in fresh medium
Text: (§1) An ideal radiosensitizer means it enhances radiosensitivity at non-toxic dose, but not due to the combined toxicity of drug and radiation. Thus to determine the toxic effect of different oxaliplatin concentrations on human cervical cancer cells by using 3-(4,5-dimethylthiazol-2-yl)-2, S-diphenyl tetrazolium bromide (MTT) assay. This assay is commonly used to determine cell proliferation, percent of viable cells, and cytotoxicity. MTT is a yellow dye, which can be absorbed by the living cells and be reduced to purplish blue formazan crystals by succinate tetrazolium reductase in mitochondria. Formazan formation can therefore be used to assess and determine the survival rate of cells.
(§2) In preliminary work, the human cervical cancer cell lines HeLa (HPV 18+) and SiHa (HPV 16+) were obtained from American Type Culture Collection (Manassas, Va.). […]
(§3) The human cervical cancer cell lines HeLa (HPV 18+) and SiHa (HPV 16+) were separately cultivated in media containing various doses (0˜10 μM) of oxaliplatin for 24 hours. […] For the assay, the cells were incubated with the MTT (tetrazolium compounds) for 4 h, lysed with DMSO, and the color crystals were solubilized with an ELISA reader at a wavelength of 570 nm.

HeLa (HPV 18+) cells = test: MTT cell viability assay; type: cell-based, human; conditions: 24 hours' exposure, MTT after 2 days in fresh medium
Text: as §1, §2, §3

HeLa cells [3] = test: Colony formation assay after oxaliplatin pretreatment and irradiation (radiation survival); type: cell-based, human
Method: (§4) To evaluate whether oxaliplatin treatment influenced the radiosensitivity of cervical cancer cells, this experiment treated HeLa and SiHa cells with oxaliplatin at various concentrations for 2 h prior to radiation survival assays in the invention.
(§5) Based on the above results of cell viability assessment, 0˜10 μM oxaliplatin was used to test for radiation sensitization. HeLa and SiHa were pretreated with various doses (0, 1.25, 5, and 10 μM) of oxaliplatin for 2 h, and the oxaliplatin was washed out before radiation delivery. Irradiation was performed with 6 MeV of electron beam by a linear accelerator (Clinac® 1800, Varian Associates, Inc.) with various doses (0.5, 1, 2 and 3 Gy) at a dose rate of 2.4 Gy/min in a single fraction. Full electron equilibrium was ensured for each fraction by a parallel plate PR-60C ionization chamber (CAPINTEL, Inc., Ramsey, N.J.). Following radiation, a colony formation assay was performed. The ionizing radition of the present invention used include, but not limited to, electron beam radition, photon, electron, gamma, alpha, beta, neutron, and proton radiation. Among them, electron beam radition is preferred.
(§6) Viable tumor cells (10^3) were plated onto culture dishes (35 mm^2) and allowed to grow in McCoy's 5A medium containing 20% heat-inactivated FCS and 0.24% agarose at 37° C. in a humidified 5% CO2 incubator. After 10 to 14 days, the resultant colonies were stained with 0.4% crystal violet and the colonies containing at least 50 cells were determined. The surviving fraction was calculated as the mean colonies/(cells inoculated×plating efficiency). The control plating efficiency for HeLa and SiHa cells was 40-60%. Survival curves were fitted by a linear-quadratic model. The sensitizer enhancement ratio (SER) was calculated as the radiation dose needed for radiation alone divided by the dose needed for oxaliplatin plus radiation to yield a surviving fraction of 37% (Do in radiobiology).
(§7) Statistical analysis was performed by analysis of variance when comparing the colony formation between different treatment conditions. All data were presented as mean ±standard error of the mean (SEM). SPSS 10.0 software (SPSS Inc, Chicago) was used for analysis of all the data. Statistical significance was assumed where the p value was less than 0.05.

SiHa cells = test: as above; type: cell-based, human
Method: as §4, §5, §6, §7

HeLa cells [4] = test: Cell morphology (Wright's staining), mitotic catastrophe; type: cell-based, human
Method: After seeding for 24 h, HeLa cells were treated with various conditions including untreated control, oxaliplatin 5 μM for 2 h, radiation 2 Gy, and oxaliplatin 5 μM for 2 h followed by washing out and radiation 2 Gy. After these treatments, cell were cultured for further 24 h and then collected for Wright's staining and observation under a light microscope.

HeLa cells [5] = test: Cell cycle distribution by propidium iodide staining and flow cytometry; type: cell-based, human
Method: To eliminate the potential contribution of cell cycle redistribution to the observed radiosensitization, flow cytometric analysis was performed to determine cell cycle progression after treatment of oxaliplatin. After treating cervical cancer cell line HeLa with 5 μM oxaliplatin for 2 h or 24 h after radiaton, drugs was washed out and cells were cultured for further 24 h. HeLa cells were harvested and fixed with 70% ethanol at 4° C. for 1 h. The cells were stained for 30 min with propidium iodide solution (containing propidium iodide, 0.5 mg/mL; RNAse, 0.1 mg/mL) from a CycleTEST PLUS DNA reagent kit (Becton Dickinson, Lincoln Park, N.J.). Analysis of the DNA content was performed using a FACScaliber flow cytometer (Becton Dickinson). The data from 10^4 cells were collected and analyzed using ModFit software (Becton Dickinson).

[6] = oxaliplatin 5 μM 2 h, versus untreated

| SMILES | effect of combination with radiation [1] | radiation-induced early expression of gamma-H2AX (gamma-H2AX in HeLa cells) | Chk1 phosphorylation in irradiated cells [2] | expression of rad51 in irradiated cells [2] | radiation-augmented phosphorylation of Chk2 [2] | radiation-induced expression of phosphorylated ATM [2] | highest non-toxic (cell viability>90%) dose (SiHa (HPV 16+) cells) [µM] | highest non-toxic (cell viability>90%) dose (HeLa (HPV 18+) cells) [µM] | sensitizer enhancement ratio (SER) at 37% survival (HeLa cells [3]; HeLa, oxaliplatin 5 μM for 2 h before radiation) | sensitizer enhancement ratio (SER) at 37% survival (HeLa cells [3]; HeLa, oxaliplatin 10 μM for 2 h before radiation (maximal SER)) | survival of irradiated tumor cells compared to radiation only (HeLa cells [3]; HeLa, pretreatment at 5 and 10 μM, radiation 0.5-3 Gy) | enhancement of radiation efficiency versus radiation alone (HeLa cells [3]; cervical cancer cell lines (HeLa and SiHa)) | maximal sensitizer enhancement ratio (SER) at 37% survival (SiHa cells; oxaliplatin 2 h before radiation) | survival of irradiated tumor cells compared to radiation only (SiHa cells; pretreatment at 5 and 10 μM, radiation 0.5-3 Gy) | percentages of apoptosis and necrosis (HeLa cells [4]; between all groups) | percentage cells with mitotic catastrophe (HeLa cells [4]; oxaliplatin 5 μM 2 h alone, untreated control 5.6±1.3%) [%] | percentage cells with mitotic catastrophe (HeLa cells [4]; oxaliplatin 5 μM 2 h followed by radiation 2 Gy, radiation alone 16.7±3.2%) [%] | proportion in the G0/G1 phase (HeLa cells [5]; [6]) | proportion of cells in the S phase (HeLa cells [5]; [6]) | percentage of cells at G2/M phase (HeLa cells [5]; oxaliplatin 5 μM plus irradiation, irradiation alone 26.2%±3.7) |
| --- | --- | --- | --- | --- | --- | --- | --- | --- | --- | --- | --- | --- | --- | --- | --- | --- | --- | --- | --- | --- |
| N.N.[Cl][Pt][Cl] [cisplatin] | no effect | – | – | – | – | – | – | – | – | – | – | – | – | – | – | – | – | – | – | – |
| O=C1[O][Pt]2([NH][C@@H]3CCCC[C@H]3[NH]2)[O]C1=O [oxaliplatin] | – | reduced | no effect | no effect | reduced | markedly reduced | 10 | 5 | 1.7 | 3.4 | markedly decreased | 3.1-3.9 times | 4.8 | markedly decreased | no marked changes | 27.3±2.2 | 38.5±3.8 | decreased | remained unchanged | 32.3%±3.5 |
